In US12291519B2, “2-hydroxycycloalkane-1-carbamoyl” (Idorsia Pharmaceuticals Ltd, priority 2019, dated 2025) one finds IC50 data, which are given here for 17 molecules.

In assay [1] the target is human Gal-3 (hGal-3) (Homo sapiens (Human), UniProt P17931). The experiment in a line: Competitive binding assay: biotinylated hGal-3 binding to microplate-adsorbed asialofetuin (ASF). The settings on record: Activity on hGal-3; binding of biotinylated hGal-3 to ASF-coated plates; mean values. As to the method:
(§1) Evaluation of Compound Inhibitory Activity (IC50)
The inhibitory activity of compounds is determined in competitive binding assays. […] Alternatively, and preferably, a human Gal-1 version in which all six cysteines are substituted by serines may be used.
Briefly, compounds are serially diluted in DMSO (working dilutions).
Plates are incubated for 3 hours at 4° C. then washed with cold assay buffer (3×50 uL), incubated for 1 hour with 25 μL/well of a streptavidin-peroxidases solution (diluted in assay buffer to 80 ng/mL) at 4° C., followed by further washing steps with assay buffer (3×50 uL). Finally, 25 μL/well of ABTS substrate is added.
(§2) The calculated IC50 values may fluctuate depending on the daily assay performance. Fluctuations of this kind are known to those skilled in the art. IC50 values from several measurements are given as mean values.

For assay [2], the target named is human Gal-1 (hGal-1). The experiment in a line: Competitive binding assay: biotinylated hGal-1 binding to microplate-adsorbed asialofetuin (ASF). As to conditions: Activity on hGal-1; binding of biotinylated hGal-1 to ASF-coated plates; mean values. The protocol: as §1
Chain of human Gal-1 (hGal-1) (P09382 2-135 limits assumed): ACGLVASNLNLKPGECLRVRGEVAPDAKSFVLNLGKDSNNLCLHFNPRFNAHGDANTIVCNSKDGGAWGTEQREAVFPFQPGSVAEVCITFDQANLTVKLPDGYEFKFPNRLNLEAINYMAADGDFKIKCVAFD
The inhibitory activity of compounds is determined in competitive binding assays. This spectrophotometric assay measures the binding of biotinylated human Gal-3 (hGal-3) or human Gal-1 (hGAl-1), respectively, to a microplate-adsorbed glycoprotein, asialofetuin (ASF) (Proc Natl Acad Sci USA. 2013 Mar. 26; 110(13):5052-7.). Alternatively, and preferably, a human Gal-1 version in which all six cysteines are substituted by serines may be used.
Briefly, compounds are serially diluted in DMSO (working dilutions). ASF-coated 384 well pates are supplemented with 22.8 μL/well of biotinylated hGal-3 or hGal-1 in assay buffer (i.e. 300-1000 ng/mL biotinylated hGal-3 or hGal-1) to which 1.2 μL of compound working dilutions are added and mixed.
Plates are incubated for 3 hours at 4° C. then washed with cold assay buffer (3×50 uL), incubated for 1 hour with 25 μL/well of a streptavidin-peroxidases solution (diluted in assay buffer to 80 ng/mL) at 4° C., followed by further washing steps with assay buffer (3×50 uL). Finally, 25 μL/well of ABTS substrate is added. OD (410 nm) is recorded after 30 to 45 min and IC50 values are calculated.
as §2

Chain of human Gal-3 (hGal-3) (P17931 whole entry): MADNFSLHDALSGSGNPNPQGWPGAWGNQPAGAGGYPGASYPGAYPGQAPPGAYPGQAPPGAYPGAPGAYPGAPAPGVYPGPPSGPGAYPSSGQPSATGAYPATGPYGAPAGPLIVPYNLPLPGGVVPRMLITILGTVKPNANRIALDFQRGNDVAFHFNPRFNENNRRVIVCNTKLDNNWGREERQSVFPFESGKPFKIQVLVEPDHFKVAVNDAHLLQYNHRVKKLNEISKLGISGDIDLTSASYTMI

In general, IC50 refers to the concentration needed to halve the response being measured. Low values mean greater potency, high ones weaker potency. As for `O=C([C@@H]1O[C@H](CO)[C@H](O)[C@H](n2cc(-c3cc(F)c(F)c(F)c3)nn2)[C@H]1O)N(Cc1cncnc1C(F)(F)F)[C@H]1CCCC[C@@H]1O` [Example 27, (2R,3R,4S,5R,6R)-3,5-dihydroxy-N-((1S,2S)-2-hydroxycyclohexyl)-6-(hydroxymethyl)-N-((4-(trifluoromethyl)pyrimidin-5-yl)methyl)-4-(4-(3,4,5-trifluorophenyl)-1H-1,2,3-triazol-1-yl)tetrahydro-2H-pyran-2-carboxamide], the half-maximal inhibitory concentration (IC50) in assay [1] was 0.264 µM; in assay [2], 3.2 µM.

`COc1ncnc(OC)c1CN(C(=O)[C@@H]1O[C@H](CO)[C@H](O)[C@H](n2cc(-c3cc(F)c(F)c(F)c3)nn2)[C@H]1O)[C@H]1CCCC[C@@H]1O` [Example 28, (2R,3R,4S,5R,6R)-N-((4,6-dimethoxypyrimidin-5-yl)methyl)-3,5-dihydroxy-N-((1S,2S)-2-hydroxycyclohexyl)-6-(hydroxymethyl)-4-(4-(3,4,5-trifluorophenyl)-1H-1,2,3-triazol-1-yl)tetrahydro-2H-pyran-2-carboxamide]: the IC50 is 0.165 µM in assay [1] and 3.97 µM in assay [2].

As for `Cc1ncncc1CN(C(=O)[C@@H]1O[C@H](CO)[C@H](O)[C@H](n2cc(-c3cc(F)c(F)c(F)c3)nn2)[C@H]1O)[C@H]1CCCC[C@@H]1O` [Example 29, (2R,3R,4S,5R,6R)-3,5-dihydroxy-N-((1S,2S)-2-hydroxycyclohexyl)-6-(hydroxymethyl)-N-((4-methylpyrimidin-5-yl)methyl)-4-(4-(3,4,5-trifluorophenyl)-1H-1,2,3-triazol-1-yl)tetrahydro-2H-pyran-2-carboxamide], the IC50 in assay [1] worked out at 0.232 µM; in assay [2], 4.41 µM.

Take `CO[C@@H]1[C@@H](n2cc(-c3cc(F)c(F)c(F)c3)nn2)[C@@H](O)[C@@H](CO)O[C@H]1C(=O)N(Cc1nc[nH]c1C)[C@H]1CCCC[C@@H]1O` [Example 30, (2R,3R,4S,5R,6R)-5-hydroxy-N-((1S,2S)-2-hydroxycyclohexyl)-6-(hydroxymethyl)-3-methoxy-N-((5-methyl-1H-imidazol-4-yl)methyl)-4-(4-(3,4,5-trifluorophenyl)-1H-1,2,3-triazol-1-yl)tetrahydro-2H-pyran-2-carboxamide]: the IC50 in assay [1] stood at 0.575 µM; in assay [2] it was 10.4 µM.

Regarding `CO[C@@H]1[C@@H](n2cc(-c3cc(F)c(F)c(F)c3)nn2)[C@@H](O)[C@@H](CO)O[C@H]1C(=O)N(Cc1sncc1Cl)[C@H]1CCCC[C@@H]1O` [Example 31, (2R,3R,4S,5R,6R)-N-((4-chloroisothiazol-5-yl)methyl)-5-hydroxy-N-((1S,2S)-2-hydroxycyclohexyl)-6-(hydroxymethyl)-3-methoxy-4-(4-(3,4,5-trifluorophenyl)-1H-1,2,3-triazol-1-yl)tetrahydro-2H-pyran-2-carboxamide], the IC50 in assay [1] was found to be 0.311 µM; in assay [2] it was 1.48 µM.

With `CO[C@@H]1[C@@H](n2cc(-c3cc(F)c(F)c(F)c3)nn2)[C@@H](O)[C@@H](CO)O[C@H]1C(=O)N(Cc1ccnn1C)[C@H]1CCCC[C@@H]1O` [Example 32], the concentration for half-maximal inhibition (IC50) in assay [1] worked out at 0.122 µM; in assay [2], 0.905 µM.

Regarding `CO[C@@H]1[C@@H](n2cc(-c3cc(F)c(F)c(F)c3)nn2)[C@@H](O)[C@@H](CO)O[C@H]1C(=O)N(Cc1sccc1C)[C@H]1CCCC[C@@H]1O` [Example 33, (2R,3R,4S,5R,6R)-5-hydroxy-N-((1S,2S)-2-hydroxycyclohexyl)-6-(hydroxymethyl)-3-methoxy-N-((3-methylthiophen-2-yl)methyl)-4-(4-(3,4,5-trifluorophenyl)-1H-1,2,3-triazol-1-yl)tetrahydro-2H-pyran-2-carboxamide], the results for the concentration for half-maximal inhibition (IC50) in assay [1] and in assay [2] were 0.127 µM and 0.962 µM, respectively.

For the molecule `CO[C@@H]1[C@@H](n2cc(-c3cc(F)c(F)c(F)c3)nn2)[C@@H](O)[C@@H](CO)O[C@H]1C(=O)N(Cc1sccc1C)[C@H]1CCCC[C@@H]1O` [Example 34], the values for the IC50 in assay [1] and in assay [2] were 0.069 µM and 0.863 µM, respectively.

For `CO[C@@H]1[C@@H](n2cc(-c3cc(F)c(F)c(F)c3)nn2)[C@@H](O)[C@@H](CO)O[C@H]1C(=O)N(Cc1sccc1Cl)[C@H]1CCCC[C@@H]1O` [Example 35, (2R,3R,4S,5R,6R)-N-((3-chlorothiophen-2-yl)methyl)-5-hydroxy-N-((1S,2S)-2-hydroxycyclohexyl)-6-(hydroxymethyl)-3-methoxy-4-(4-(3,4,5-trifluorophenyl)-1H-1,2,3-triazol-1-yl)tetrahydro-2H-pyran-2-carboxamide], the results for the IC50 in assay [1] and in assay [2] were 0.21 µM and 1.63 µM, respectively.

`CO[C@@H]1[C@@H](n2cc(-c3cc(F)c(F)c(F)c3)nn2)[C@@H](O)[C@@H](CO)O[C@H]1C(=O)N(Cc1scnc1C)[C@H]1CCCC[C@@H]1O` [Example 36, (2R,3R,4S,5R,6R)-5-hydroxy-N-((1S,2S)-2-hydroxycyclohexyl)-6-(hydroxymethyl)-3-methoxy-N-((4-methylthiazol-5-yl)methyl)-4-(4-(3,4,5-trifluorophenyl)-1H-1,2,3-triazol-1-yl)tetrahydro-2H-pyran-2-carboxamide]: the 50% inhibitory concentration (IC50) was found to be 0.231 µM in assay [1] and 1.03 µM in assay [2].

`CO[C@@H]1[C@@H](n2cc(-c3cc(F)c(F)c(F)c3)nn2)[C@@H](O)[C@@H](CO)O[C@H]1C(=O)N(Cc1nccn1C)[C@H]1CCCC[C@@H]1O` [Example 37, (2R,3R,4S,5R,6R)-5-hydroxy-N-((1S,2S)-2-hydroxycyclohexyl)-6-(hydroxymethyl)-3-methoxy-N-((1-methyl-1H-imidazol-2-yl)methyl)-4-(4-(3,4,5-trifluorophenyl)-1H-1,2,3-triazol-1-yl)tetrahydro-2H-pyran-2-carboxamide]: the figures for the concentration for half-maximal inhibition (IC50) in assay [1] and in assay [2] were 0.337 µM and 5.77 µM, respectively.

Consider `CO[C@@H]1[C@@H](n2cc(-c3cc(F)c(F)c(F)c3)nn2)[C@@H](O)[C@@H](CO)O[C@H]1C(=O)N(Cc1ccsc1C)[C@H]1CCCC[C@@H]1O` [Example 38, (2R,3R,4S,5R,6R)-5-hydroxy-N-((1S,2S)-2-hydroxycyclohexyl)-6-(hydroxymethyl)-3-methoxy-N-((2-methylthiophen-3-yl)methyl)-4-(4-(3,4,5-trifluorophenyl)-1H-1,2,3-triazol-1-yl)tetrahydro-2H-pyran-2-carboxamide], for which the half-inhibitory concentration (IC50) in assay [1] was found to be 0.207 µM; in assay [2], 1.68 µM.

On to `COc1ccccc1CN(C(=O)[C@@H]1O[C@H](CO)[C@H](O)[C@H](n2cc(-c3cc(F)c(F)c(F)c3)nn2)[C@H]1OC)[C@H]1CCCC[C@@H]1O` [Example 39, (2R,3R,4S,5R,6R)-5-hydroxy-N-((1S,2S)-2-hydroxycyclohexyl)-6-(hydroxymethyl)-3-methoxy-N-(2-methoxybenzyl)-4-(4-(3,4,5-trifluorophenyl)-1H-1,2,3-triazol-1-yl)tetrahydro-2H-pyran-2-carboxamide], for which the IC50 in assay [1] was 0.224 µM; in assay [2], 2.96 µM.

In the case of `COc1cccc(OC)c1CN(C(=O)[C@@H]1O[C@H](CO)[C@H](O)[C@H](n2cc(-c3cc(F)c(F)c(F)c3)nn2)[C@H]1OC)[C@H]1CCCC[C@@H]1O` [Example 40, (2R,3R,4S,5R,6R)-N-(2,6-dimethoxybenzyl)-5-hydroxy-N-((1S,2S)-2-hydroxycyclohexyl)-6-(hydroxymethyl)-3-methoxy-4-(4-(3,4,5-trifluorophenyl)-1H-1,2,3-triazol-1-yl)tetrahydro-2H-pyran-2-carboxamide], the values for the IC50 in assay [1] and in assay [2] were 0.199 µM and 4.67 µM, respectively.

Turning to `Cn1ccnc1CN(C(=O)[C@@H]1O[C@H](CO)[C@H](O)[C@H](n2cc(-c3cc(F)c(F)c(F)c3)nn2)[C@H]1O)[C@H]1CCCC[C@@H]1O` [Example 41, (2R,3R,4S,5R,6R)-3,5-dihydroxy-N-((1S,2S)-2-hydroxycyclohexyl)-6-(hydroxymethyl)-N-((1-methyl-1H-imidazol-2-yl)methyl)-4-(4-(3,4,5-trifluorophenyl)-1H-1,2,3-triazol-1-yl)tetrahydro-2H-pyran-2-carboxamide], the IC50 in assay [1] was 0.464 µM; in assay [2], 12.3 µM.

As to `CC(=O)O[C@@H]1[C@@H](n2cc(-c3cc(F)c(F)c(F)c3)nn2)[C@@H](O)[C@@H](CO)O[C@H]1C(=O)N(Cc1nccn1C)[C@H]1CCCC[C@@H]1O` [Example 42], the concentration for half-maximal inhibition (IC50) in assay [1] is 0.212 µM; in assay [2], 34.5 µM.

For the molecule `CC(=O)O[C@@H]1[C@@H](n2cc(-c3cc(F)c(F)c(F)c3)nn2)[C@@H](O)[C@@H](CO)O[C@H]1C(=O)N(Cc1ccnn1C)[C@H]1CCCC[C@@H]1O` [Example 43, (2R,3R,4S,5R,6R)-5-hydroxy-2-(((1S,2S)-2-hydroxycyclohexyl)((1-methyl-1H-pyrazol-5-yl)methyl)carbamoyl)-6-(hydroxymethyl)-4-(4-(3,4,5-trifluorophenyl)-1H-1,2,3-triazol-1-yl)tetrahydro-2H-pyran-3-yl acetate], the half-inhibitory concentration (IC50) came to 0.076 µM in assay [1] and 2.67 µM in assay [2].
